Assay results published in patent EP0400609A1, “Intravenous solutions with quick action onset” (CIBA-GEIGY AG, priority 1989, dated 1990).
Like-named read-outs stand apart in the source and are kept apart here.

Tests used:
[1] = test system: Tonische Konvulsionen der Kinterextremitäten; experiment: Maximal electroshock test in rats; type: in vivo, Ratten; details: for ED50: Rattus norvegicus
Text: Die akute Schutzwirkung von Carbamazepin nach intravenöser Verabreichung im Vergleich zur oralen wurde mit Hilfe des maximalen Elektroschocks ermittelt. Die folgenden Methoden wurden verwendet: - Elektroschock Test an Ratten: Tonische Konvulsionen der Kinterextremitäten wurden durch Verabreichung eines Wechselstroms von 50 Hz und 36 mA während 0,63 Sekunden mit Hilfe von Cornealelektroden ausgelöst. Es wurden 10 Ratten pro Dosis und Zeiteinheit verwendet; eine Gruppe diente als Kontrolle. Die Anzahl der Ratten, die keine tonische Konvulsion der Hinterextremitäten aufwiesen, wurde für jede Gruppe bestimmt. Die ED₅₀ wurde mit Hilfe der Regressionsanalyse nach der Methode von Spearman und Kärber berechnet. - Elektroschock Test an Mäusen: Tonische Konvulsionen der Hinterextremitäten wurden durch Verabreichung eines Wechselstromes von 50 Hz und 18 mA während 0,2 Sekunden mittels Cornealelektroden ausgelöst. Für jede Dosis und Zeiteinheit wurden 10 Mäuse verwendet; eine Gruppe diente als Kontrolle. Die Anzahl der Mäuse, die keine tonische Konvulsion der Hinterextremitäten zeigten, wurde für jede Gruppe bestimmt. Die ED₅₀ wurde mit Hilfe der Regressionsanalyse nach der Methode von Spearman und Kärber bestimmt.

[2] = test system: Tonische Konvulsionen der Hinterextremitäten; experiment: Maximal electroshock test in mice; type: in vivo, Mäuse; details: for ED50: Mus musculus
Text: Die akute Schutzwirkung von Carbamazepin nach intravenöser Verabreichung im Vergleich zur oralen wurde mit Hilfe des maximalen Elektroschocks ermittelt. Die folgenden Methoden wurden verwendet: - Elektroschock Test an Ratten: Tonische Konvulsionen […] durch Verabreichung eines Wechselstroms von 50 Hz und 36 mA während 0,63 Sekunden mit Hilfe von Cornealelektroden ausgelöst. Es wurden 10 Ratten pro Dosis und Zeiteinheit verwendet; eine Gruppe diente als Kontrolle. Die Anzahl der Ratten, die keine tonische Konvulsion […], wurde für jede Gruppe bestimmt. Die ED50 wurde mit Hilfe der Regressionsanalyse nach der Methode von Spearman und Kärber berechnet. - Elektroschock Test an Mäusen: Tonische Konvulsionen […] durch Verabreichung eines Wechselstromes von 50 Hz und 18 […] jede Dosis und Zeiteinheit wurden 10 Mäuse verwendet; eine Gruppe diente als Kontrolle. Die Anzahl der Mäuse, die keine tonische Konvulsion […], wurde für jede Gruppe bestimmt. Die ED50 wurde mit Hilfe der Regressionsanalyse nach der Methode von Spearman und Kärber bestimmt.

[3] = Dissolution of dry preparations in water; type: physicochemical; details: without aids, at 20°C
Description: Die unter den Nummern 14 bis 17 hergestellten Trockenpräparate lösen sich ohne Hilfsmittel in weniger als einer Minute bei 20°C in Wasser, während sich mikrokristallisiertes Carbamazepin unter den gleichen Bedingungen nicht löst.

Compound: NC(=O)N1c2ccccc2C=Cc2ccccc21 [Carbamazepin, 5H-Dibenz[b,f]azepin-5-carboxamid]
- ED50 ([1]; 2.5 min, intravenous, 2,5 min after dosing, read-out: ED₅₀ in mg/kg intravenös Ratten): 1.9 mg/kg
- ED50 ([1]; 2.5 min, oral, 2,5 min after dosing, read-out: ED₅₀ in mg/kg oral Ratten): > 60 mg/kg
- ED50 ([1]; 5 min, intravenous, 5 min after dosing, read-out: ED₅₀ in mg/kg intravenös Ratten): 1.6 mg/kg
- ED50 ([1]; 5 min, oral, 5 min after dosing, read-out: ED₅₀ in mg/kg oral Ratten): 60 mg/kg
- ED50 ([1]; 0.25 h, intravenous, 15 min after dosing, read-out: ED₅₀ in mg/kg intravenös Ratten): 2.5 mg/kg
- ED50 ([1]; 0.25 h, oral, 15 min after dosing, read-out: ED₅₀ in mg/kg oral Ratten): 15.4 mg/kg
- ED50 ([1]; 0.5 h, intravenous, 30 min after dosing, read-out: ED₅₀ in mg/kg intravenös Ratten): 3 mg/kg
- ED50 ([1]; 0.5 h, oral, 30 min after dosing, read-out: ED₅₀ in mg/kg oral Ratten): 9.6 mg/kg
- ED50 ([1]; 1 h, intravenous, 60 min after dosing, read-out: ED₅₀ in mg/kg intravenös Ratten): 2.5 mg/kg
- ED50 ([1]; 1 h, oral, 60 min after dosing, read-out: ED₅₀ in mg/kg oral Ratten): 10 mg/kg
- ED50 ([1]; 2 h, intravenous, 120 min after dosing, read-out: ED₅₀ in mg/kg intravenös Ratten): 4 mg/kg
- ED50 ([1]; 2 h, oral, 120 min after dosing, read-out: ED₅₀ in mg/kg oral Ratten): 12.5 mg/kg
- Schutzwirkung, % bei 10 mg/kg, Ratten ([1]; intravenous, 240 min after dosing, 10 mg/kg, printed in place of an ED₅₀): 40 % bei 10 mg/kg
- ED50 ([2]; 2.5 min, intravenous, 2,5 min after dosing, read-out: ED₅₀ in mg/kg intravenös Mäuse): 5.4 mg/kg
- ED50 ([2]; 5 min, intravenous, 5 min after dosing, read-out: ED₅₀ in mg/kg intravenös Mäuse): 6.2 mg/kg
- ED50 ([2]; 5 min, oral, 5 min after dosing, read-out: ED₅₀ in mg/kg oral Mäuse): 22.7 mg/kg
- ED50 ([2]; 0.25 h, intravenous, 15 min after dosing, read-out: ED₅₀ in mg/kg intravenös Mäuse): 5.4 mg/kg
- ED50 ([2]; 0.25 h, oral, 15 min after dosing, read-out: ED₅₀ in mg/kg oral Mäuse): 22.3 mg/kg
- ED50 ([2]; 0.5 h, intravenous, 30 min after dosing, read-out: ED₅₀ in mg/kg intravenös Mäuse): 6.2 mg/kg
- ED50 ([2]; 0.5 h, oral, 30 min after dosing, read-out: ED₅₀ in mg/kg oral Mäuse): 10.7 mg/kg
- ED50 ([2]; 1 h, intravenous, 60 min after dosing, read-out: ED₅₀ in mg/kg intravenös Mäuse): 9.3 mg/kg
- ED50 ([2]; 1 h, oral, 60 min after dosing, read-out: ED₅₀ in mg/kg oral Mäuse): 13 mg/kg
- ED50 ([2]; 2 h, intravenous, 120 min after dosing, read-out: ED₅₀ in mg/kg intravenös Mäuse): 15.8 mg/kg
- ED50 ([2]; 2 h, oral, 120 min after dosing, read-out: ED₅₀ in mg/kg oral Mäuse): 27 mg/kg
- ED50 ([2]; 4 h, intravenous, 240 min after dosing, read-out: ED₅₀ in mg/kg in Mäuse): > 20 mg/kg
- Schutzwirkung, % bei 60, oral Mäuse ([2]; oral, 2,5 min after dosing, at 60 (column unit mg/kg), printed in place of an ED₅₀): 10 % bei 60
- Auflösung in Wasser [3]: nicht löst
